Measurements reported in the supplement of paper PMC10307832.

What was measured:
Test in all cases: relative viability (nuclei count vs DMSO), 5 days (fraction); higher = more cells survive
NCI-H2009 = tested on: NCI-H2009
How it was run: (§1)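 Lung cancer cell lines, seeded in 1536-well plates, were treated the following day by pin tool with a single drug or with five library-drug doses (not always all listed) in √10 steps on top of a fixed anchor-drug dose. Cells were fixed and nuclei stained in one step after 5 days, and nuclei were counted. Relative viability is the nuclei count for treated wells divided by that for vehicle wells, reported as medians of duplicate plates.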

NCI-H2085 = tested on: NCI-H2085
How it was run: as §1

LU99A = tested on: LU99A
How it was run: as §1

NCI-H650 = tested on: NCI-H650
How it was run: as §1

NCI-H460 = tested on: NCI-H460
How it was run: as §1

NCI-H2126 = tested on: NCI-H2126
How it was run: as §1

HARA = tested on: HARA
How it was run: as §1

NCI-H1993 = tested on: NCI-H1993
How it was run: as §1

LC-2-ad = tested on: LC-2-ad
How it was run: as §1

NCI-H838 = tested on: NCI-H838
How it was run: as §1

HCC-78 = tested on: HCC-78
How it was run: as §1

EPLC-272H = tested on: EPLC-272H
How it was run: as §1

NCI-H2347 = tested on: NCI-H2347
How it was run: as §1

UMC-11 = tested on: UMC-11
How it was run: as §1

SW 1573 = tested on: SW 1573
How it was run: as §1

PC-14 = tested on: PC-14
How it was run: as §1

NCI-H1915 = tested on: NCI-H1915
How it was run: as §1

ABC-1 = tested on: ABC-1
How it was run: as §1

COR-L23 = tested on: COR-L23
How it was run: as §1

NCI-H1651 = tested on: NCI-H1651
How it was run: as §1

HCC-15 = tested on: HCC-15
How it was run: as §1

NCI-H358 = tested on: NCI-H358
How it was run: as §1

Compound: C[C@@H]1CN(CC(=O)Nc2ccc3c(c2)Cc2cccc(-c4cc(=O)cc(N5CCOCC5)o4)c2S3)C[C@H](C)O1 + Cc1nc(NC(=O)N2CCC[C@H]2C(N)=O)sc1-c1ccnc(C(C)(C)C(F)(F)F)c1 [Alpelisib] (partner 2 µM)
- relative viability (NCI-H2009; first compound 0.04 µM): 1.23
- relative viability (NCI-H2009; first compound 0.1265 µM): 1.09
- relative viability (NCI-H2009; first compound 0.4 µM): 1.09
- relative viability (NCI-H2009; first compound 4 µM): 0.974
- relative viability (NCI-H2085; first compound 0.04 µM): 0.99
- relative viability (NCI-H2085; first compound 0.1265 µM): 0.897
- relative viability (NCI-H2085; first compound 0.4 µM): 0.793
- relative viability (NCI-H2085; first compound 4 µM): 0.7
- relative viability (LU99A; first compound 0.04 µM): 0.475
- relative viability (LU99A; first compound 0.1265 µM): 0.532
- relative viability (LU99A; first compound 0.4 µM): 0.567
- relative viability (LU99A; first compound 4 µM): 0.566
- relative viability (NCI-H650; first compound 0.04 µM): 0.949
- relative viability (NCI-H650; first compound 0.1265 µM): 1.06
- relative viability (NCI-H650; first compound 0.4 µM): 1.15
- relative viability (NCI-H650; first compound 4 µM): 0.895
- relative viability (NCI-H460; first compound 0.04 µM): 0.517
- relative viability (NCI-H460; first compound 0.1265 µM): 0.416
- relative viability (NCI-H460; first compound 0.4 µM): 0.355
- relative viability (NCI-H460; first compound 4 µM): 0.265
- relative viability (NCI-H2126; first compound 0.04 µM): 0.807
- relative viability (NCI-H2126; first compound 0.1265 µM): 0.765
- relative viability (NCI-H2126; first compound 0.4 µM): 0.738
- relative viability (NCI-H2126; first compound 4 µM): 0.762
- relative viability (HARA; first compound 0.04 µM): 0.81
- relative viability (HARA; first compound 0.1265 µM): 0.637
- relative viability (HARA; first compound 0.4 µM): 0.711
- relative viability (HARA; first compound 4 µM): 0.78
- relative viability (NCI-H1993; first compound 0.04 µM): 0.641
- relative viability (NCI-H1993; first compound 0.1265 µM): 0.685
- relative viability (NCI-H1993; first compound 0.4 µM): 0.592
- relative viability (NCI-H1993; first compound 4 µM): 0.62
- relative viability (LC-2-ad; first compound 0.04 µM): 1.02
- relative viability (LC-2-ad; first compound 0.1265 µM): 0.864
- relative viability (LC-2-ad; first compound 0.4 µM): 0.77
- relative viability (LC-2-ad; first compound 4 µM): 0.848
- relative viability (NCI-H838; first compound 0.04 µM): 0.971
- relative viability (NCI-H838; first compound 0.1265 µM): 0.913
- relative viability (NCI-H838; first compound 0.4 µM): 0.906
- relative viability (NCI-H838; first compound 4 µM): 0.784
- relative viability (HCC-78; first compound 0.04 µM): 0.303
- relative viability (HCC-78; first compound 0.1265 µM): 0.3
- relative viability (HCC-78; first compound 0.4 µM): 0.278
- relative viability (HCC-78; first compound 4 µM): 0.33
- relative viability (EPLC-272H; first compound 0.04 µM): 0.928
- relative viability (EPLC-272H; first compound 0.1265 µM): 0.806
- relative viability (EPLC-272H; first compound 0.4 µM): 0.857
- relative viability (EPLC-272H; first compound 4 µM): 1.1
- relative viability (NCI-H2347; first compound 0.04 µM): 0.981
- relative viability (NCI-H2347; first compound 0.1265 µM): 1.09
- relative viability (NCI-H2347; first compound 0.4 µM): 1.08
- relative viability (NCI-H2347; first compound 4 µM): 0.979
- relative viability (UMC-11; first compound 0.04 µM): 1.1
- relative viability (UMC-11; first compound 0.1265 µM): 1.02
- relative viability (UMC-11; first compound 0.4 µM): 1.1
- relative viability (UMC-11; first compound 4 µM): 0.737
- relative viability (SW 1573; first compound 0.04 µM): 0.867
- relative viability (SW 1573; first compound 0.1265 µM): 0.852
- relative viability (SW 1573; first compound 0.4 µM): 0.771
- relative viability (SW 1573; first compound 4 µM): 0.753
- relative viability (PC-14; first compound 0.04 µM): 0.961
- relative viability (PC-14; first compound 0.1265 µM): 0.986
- relative viability (PC-14; first compound 0.4 µM): 0.9
- relative viability (PC-14; first compound 4 µM): 0.855
- relative viability (NCI-H1915; first compound 0.04 µM): 1.02
- relative viability (NCI-H1915; first compound 0.1265 µM): 1.08
- relative viability (NCI-H1915; first compound 0.4 µM): 1.1
- relative viability (NCI-H1915; first compound 4 µM): 1.04
- relative viability (ABC-1; first compound 0.1265 µM): 1.05
- relative viability (ABC-1; first compound 0.4 µM): 0.872
- relative viability (ABC-1; first compound 4 µM): 0.466
- relative viability (COR-L23; first compound 0.04 µM): 1.02
- relative viability (COR-L23; first compound 0.1265 µM): 0.802
- relative viability (COR-L23; first compound 0.4 µM): 0.798
- relative viability (COR-L23; first compound 4 µM): 0.727
- relative viability (NCI-H1651; first compound 0.04 µM): 0.953
- relative viability (NCI-H1651; first compound 0.1265 µM): 0.923
- relative viability (NCI-H1651; first compound 0.4 µM): 0.881
- relative viability (NCI-H1651; first compound 4 µM): 1.06
- relative viability (HCC-15; first compound 0.04 µM): 0.976
- relative viability (HCC-15; first compound 0.1265 µM): 0.881
- relative viability (HCC-15; first compound 0.4 µM): 0.826
- relative viability (HCC-15; first compound 4 µM): 0.71
- relative viability (NCI-H358; first compound 0.04 µM): 1.12
- relative viability (NCI-H358; first compound 0.1265 µM): 0.859
- relative viability (NCI-H358; first compound 0.4 µM): 0.73
- relative viability (NCI-H358; first compound 4 µM): 0.491

Compound: CC(C)Oc1cc(Nc2nc(N[C@@H](C)c3ccc(F)cn3)ncc2Cl)n[nH]1 [AZ23] + C[C@@H](Oc1cc(-c2cnn(C3CCNCC3)c2)cnc1N)c1c(Cl)ccc(F)c1Cl [Crizotinib] (partner 1 µM)
- relative viability (NCI-H2009; first compound 0.01 µM): 1.05
- relative viability (NCI-H2009; first compound 0.03162 µM): 1.2
- relative viability (NCI-H2009; first compound 0.3162 µM): 1.06
- relative viability (NCI-H2085; first compound 0.01 µM): 1.03
- relative viability (NCI-H2085; first compound 0.03162 µM): 0.94
- relative viability (NCI-H2085; first compound 0.3162 µM): 0.838
- relative viability (LU99A; first compound 0.01 µM): 0.617
- relative viability (LU99A; first compound 0.03162 µM): 0.563
- relative viability (LU99A; first compound 0.3162 µM): 0.6
- relative viability (NCI-H650; first compound 0.01 µM): 0.866
- relative viability (NCI-H650; first compound 0.03162 µM): 0.813
- relative viability (NCI-H650; first compound 0.3162 µM): 0.847
- relative viability (NCI-H460; first compound 0.01 µM): 0.827
- relative viability (NCI-H460; first compound 0.03162 µM): 1.04
- relative viability (NCI-H460; first compound 0.3162 µM): 0.834
- relative viability (NCI-H2126; first compound 0.01 µM): 1.24
- relative viability (NCI-H2126; first compound 0.03162 µM): 1.11
- relative viability (NCI-H2126; first compound 0.3162 µM): 1.05
- relative viability (HARA; first compound 0.01 µM): 1.2
- relative viability (HARA; first compound 0.03162 µM): 0.904
- relative viability (HARA; first compound 0.3162 µM): 0.983
- relative viability (NCI-H1993; first compound 0.01 µM): 0.857
- relative viability (NCI-H1993; first compound 0.3162 µM): 0.804
- relative viability (LC-2-ad; first compound 0.01 µM): 0.471
- relative viability (LC-2-ad; first compound 0.03162 µM): 0.458
- relative viability (LC-2-ad; first compound 0.3162 µM): 0.436
- relative viability (NCI-H838; first compound 0.01 µM): 0.702
- relative viability (NCI-H838; first compound 0.03162 µM): 0.889
- relative viability (NCI-H838; first compound 0.3162 µM): 0.803
- relative viability (HCC-78; first compound 0.01 µM): 0.318
- relative viability (HCC-78; first compound 0.03162 µM): 0.39
- relative viability (HCC-78; first compound 0.3162 µM): 0.336
- relative viability (EPLC-272H; first compound 0.01 µM): 1.19
- relative viability (EPLC-272H; first compound 0.03162 µM): 1.19
- relative viability (NCI-H2347; first compound 0.01 µM): 0.736
- relative viability (NCI-H2347; first compound 0.03162 µM): 0.861
- relative viability (NCI-H2347; first compound 0.3162 µM): 0.654
- relative viability (UMC-11; first compound 0.01 µM): 0.552
- relative viability (UMC-11; first compound 0.03162 µM): 0.73
- relative viability (UMC-11; first compound 0.3162 µM): 0.555
- relative viability (SW 1573; first compound 0.01 µM): 0.915
- relative viability (SW 1573; first compound 0.03162 µM): 0.997
- relative viability (SW 1573; first compound 0.3162 µM): 0.727
- relative viability (PC-14; first compound 0.01 µM): 0.896
- relative viability (PC-14; first compound 0.03162 µM): 1.21
- relative viability (PC-14; first compound 0.3162 µM): 0.89
- relative viability (NCI-H1915; first compound 0.01 µM): 1.28
- relative viability (NCI-H1915; first compound 0.03162 µM): 0.936
- relative viability (NCI-H1915; first compound 0.3162 µM): 0.979
- relative viability (ABC-1; first compound 0.01 µM): 0.752
- relative viability (ABC-1; first compound 0.03162 µM): 1.27
- relative viability (ABC-1; first compound 0.3162 µM): 1.25
- relative viability (COR-L23; first compound 0.01 µM): 0.763
- relative viability (COR-L23; first compound 0.03162 µM): 0.828
- relative viability (COR-L23; first compound 0.3162 µM): 0.766
- relative viability (NCI-H1651; first compound 0.01 µM): 0.94
- relative viability (NCI-H1651; first compound 0.03162 µM): 0.97
- relative viability (NCI-H1651; first compound 0.3162 µM): 0.875
- relative viability (HCC-15; first compound 0.01 µM): 1.1
- relative viability (HCC-15; first compound 0.03162 µM): 0.881
- relative viability (HCC-15; first compound 0.3162 µM): 0.884
- relative viability (NCI-H358; first compound 0.01 µM): 0.522
- relative viability (NCI-H358; first compound 0.03162 µM): 0.781
- relative viability (NCI-H358; first compound 0.3162 µM): 0.654
